Where “and” joins values, the source holds several entries; their conditions need not be identical. Equal values may be shown once. Read-outs that look alike come from different tables or passages of the source. Non-standard residues stand in square brackets, D forms with d. Residues, ends and D or L forms follow the SMILES beside them. *: point of attachment. Acetyl(1,8-naphthalimido) = O=C1c2cccc3cccc(c23)C(=O)N1CC(=O)*; βAla = NCCC(=O)O
Columns and labels:
Candida albicans 74 = assay: Antimicrobial assay, agar/disc diffusion, C. albicans; type: cell-based; settings: 6 μL of 20 μM solution on 6 mm paper disc, 24 h
Protocol: (§1) The microbial cultures were placed in a thin layer on sterile plates. On sterile paper discs, 6 μL of 20 μM solutions in distilled water of the test compounds was placed. Further, the discs were incorporated into a thin layer of sterile plates (Figure 3). The studies were triplicates for each concentration, and the diameters of the obtained zones represent the average value of the three results.
(§2) All newly synthesized derivatives of (KLAKLAK)2-NH2 at concentrations of 20 μM in distilled water were tested against model strains E. coli NBIMCC K12 407, B. subtilis NBIMCC 3562 and C. albicans NBIMCC 74. The strains were obtained from the National Bank for Industrial Microorganisms and Cell Cultures (NBIMCC, Sofia, Bulgaria). Exponential cultures (1 × 10^7 cfu/mL) of strains E. coli K12 407 were obtained in Luria-Bertani (LB, HiMedia, Mumbai, India); for B. subtilis 3562, an initial bacterial concentration of 1 × 10^6 cfu/mL was obtained in nutrient broth (NB, HiMedia, Mumbai, India); and for C. albicans 74, and initial bacterial concentration of 1 × 10^5 cfu/mL was obtained in yeast mold (YM) medium. Cultivation was performed in an ES-20/60 incubator shaker (Biosan, Riga, Latvia) at 30 °C for B. subtilis 3562 and at 37 °C for E. coli K12 407 and C. albicans 74 with shaking at 220 rpm for 24 h. The agar diffusion method was applied to determine the antimicrobial activity of the tested compounds. LB/NB/YM plates were inoculated by spreading 100 μL of each microbial culture on their surface, followed by incubation at 30/37 °C for penetration of suspension into the agar. After 30 min, sterile paper discs (6 mm in diameter) were soaked with the tested compounds in amounts of 6 µL and placed on the surface of agar Petri dishes. The plates were incubated at 30/37 °C for 24 h. Antimicrobial activity was assessed by measuring the diameter of the obtained inhibition zones. Sterile paper discs soaked with water were used as blank controls. Mean values were calculated by performing the experiments in triplicates.

MCF-7 = assay: Antiproliferative activity, MTT dye-reduction assay, MCF-7; type: cell-based, human; settings: for IC50: MTT, 72 h, read-out: IC50 of Mean ± SD Antiproliferative Activity MCF-7; for SI ± SD MCF-7 (selective index): SI = IC50 of MCF-10A/IC50 of MCF-7
Protocol: (§3) The compounds were studied for antiproliferative activity by MTT dye-reduction assay. Cell cultures from different cell lines (MCF-10A, MCF-7 and MDA-MB-231) were incubated with the test substances at a concentration of 15 to 2000 μM for 72 h at 37 °C, 5% CO2 and 95% humidity. The antiproliferative activity expressed in % relative to the negative control was determined.
(§4) The antiproliferative activity testing was performed on cell cultures from several human cell lines using the standard MTT dye-reduction assay, described by Mosmann. The assay is based on the metabolism of the tetrazolium salt 3-(4,5-dimethylthiazol-2-yl)-2,5-diphenyltetrazolium bromide (MTT) to insoluble formazan by mitochondrial reductases. The formazan concentration can be determined spectrophotometrically. The measured absorption is an indicator of cell viability and metabolic activity. The following cell lines were used in the experiments: mammary gland type A adenocarcinoma ER+, PR+ and HER2− (MCF-7); triple-negative breast cancer ER−, PR−, and HER2− (MDA-MB-231); and breast, nontumorigenic epithelial cell line (MCF-10A). The cell lines were routinely grown as monolayers in 75 cm^2 tissue culture flasks under standard conditions (described above). Cells were plated at a density of 1 × 10^3 cells in 100 µL in each well of 96-well flat-bottomed microplates and allowed to adhere for 24 h before treatment with test compounds. A concentration range from 15 to 2000 μM was applied for 72 h. Formazan absorption was registered using a microplate reader at λ = 540 nm. Antiproliferative activities were expressed as IC50 values (concentrations required for 50% inhibition of cell growth), calculated using nonlinear regression analysis (GraphPad Prism 4 Software, https://www.graphpad.com).

Bacillus subtilis 3562 = assay: Antimicrobial assay, agar/disc diffusion, B. subtilis; type: cell-based; settings: 6 μL of 20 μM solution on 6 mm paper disc, 24 h
Protocol: as §1, §2

MCF-10A = assay: Antiproliferative activity, MTT dye-reduction assay, MCF-10A; type: cell-based, human; settings: 72 h, read-out: IC50 of Mean ± SD Antiproliferative Activity MCF-10A
Protocol: as §3
MCF-10A is a reliable model for normal human mammary epithelial cells, which serves as a control in experiments to determine antitumor activity.
as §4

Escherichia coli K12 407 = assay: Antimicrobial assay, agar/disc diffusion, E. coli; type: cell-based; settings: 6 μL of 20 μM solution on 6 mm paper disc, 24 h
Protocol: as §1, §2

[1] = In vitro cytotoxicity, 3T3 NRU test; type: cell-based; settings: mouse, BALB/3T3 clone A31 mouse embryo cells, 24 h incubation, 15 to 2000 μM, read-out: IC50 of Mean ± SD Cytotoxicity BALB 3T3 (CC50)
Protocol: The newly synthesized compounds were studied for cytotoxicity assessment by an in vitro 3T3 NRU test. The cells were incubated with the test substances at a concentration of 15 to 2000 μM for 24 h at 37 °C, 5% CO2 and 95% humidity. The cytotoxicity expressed in % relative to the negative control was determined.
The cytotoxicity testing was performed as described by Borenfreund et al. and the latest modification of the validated BALB/3T3 clone A31 Neutral Red Uptake Assay (3T3 NRU test). BALB/3T3 clone A31 mouse embryo cells were grown as a monolayer in 75 cm^2 tissue culture flasks in high-glucose DMEM (4.5 g/L), supplemented with 10% FBS and antibiotics. Cultures were maintained at 37.5 °C in a humidified atmosphere under 5% CO2. Cells were plated at a density of 1 × 10^4 cells in 100 μL culture medium in each well of 96-well flat-bottomed microplates and allowed to adhere for 24 h before treatment with test compounds, dissolved in DMSO and further diluted in culture medium. A wide concentration range was applied (from 15 to 2000 μM), and the cells were incubated for an additional 24 h. After treatment with Neutral Red medium, washing and application of the ethanol/acetic acid solution (NR Desorb), the absorption was measured on a TECAN microplate reader at wavelength 540 nm. The data obtained are on average from three independent experiments ± SD, n = 6.

[2] = Hydrolytic stability in model buffer solutions by HPLC; type: physicochemical; settings: 72 h, model buffer solutions pH 2, pH 7.4 and pH 9, HPLC
Protocol: HPLC profiles of all target compounds at three different pH values that mimic human pH in the stomach (pH 2), blood plasma (pH 7.4) and small intestine (pH 9) are presented in the Supplementary Materials.
The designed changes in the structures, i.e., C-terminal amide modification, as well as the introduction of a β-Ala moiety, lead to complete stability of the target compounds during the test period in all model conditions.
The obtained solution was made up to 1000.0 mL with dH2O; • (ii) Buffer with pH 7.4–2.38 g Na2HPO4, 0.19 g KH2PO4 and 8.0 g NaCl was dissolved in dH2O. The obtained solution was made up to 1000.0 mL with dH2O. • (iii) Buffer with pH 9.0–1000.0 mL of solution I was mixed with 420.0 mL of solution II. Solution I: 6.18 g of H3BO3 was dissolved in 0.1 mol/L KCl, and it was made up to 1000.0 mL with the same solvent; Solution II: 0.1 mol/L NaOH.

MDA-MB-231 = assay: Antiproliferative activity, MTT dye-reduction assay, MDA-MB-231; type: cell-based, human; settings: for IC50: MTT, 72 h, read-out: IC50 of Mean ± SD Antiproliferative Activity MDA-MB-231; for SI ± SD MDA-MB-231 (selective index): SI = IC50 of MCF-10A/IC50 of MDA-MB-231
Protocol: as §3, §4

Row | SMILES | Inhibition zones size, Candida albicans 74 (Candida albicans 74) | Inhibition zones size, Candida albicans 74 (Candida albicans 74; listed as Si 4) [mm] | IC50 (MCF-7) [µM] | SI ± SD MCF-7 (selective index) (MCF-7) | SI ± SD MCF-7 (selective index) (MCF-7; listed as Si 4) | Inhibition zones size, Bacillus subtilis 3562 (Bacillus subtilis 3562; listed as S4) [mm] | IC50 (MCF-10A) [µM] | Inhibition zones size, Escherichia coli K12 407 (Escherichia coli K12 407; listed as S4) [mm] | CC50 at 24 h [1] [µM] | Hydrolytic stability [2] | IC50 (MDA-MB-231) [µM] | SI ± SD MDA-MB-231 (selective index) (MDA-MB-231) | SI ± SD MCF-7 (selective index) (MCF-7; listed as Si 10) | Inhibition zones size, Bacillus subtilis 3562 (Bacillus subtilis 3562) [mm] | Inhibition zones size, Escherichia coli K12 407 (Escherichia coli K12 407) [mm] | melting point [°C] | IC50 (MCF-7; listed as Si 9) [µM] | SI ± SD MCF-7 (selective index) (MCF-7; listed as Si 9)
1 | CC(C)C[C@H](NC(=O)[C@H](CCCCN)NC(=O)CCNC(=O)[C@H](CC(C)C)NC(=O)[C@H](CCCCN)NC(=O)CN1C(=O)c2cccc3cccc(c23)C1=O)C(=O)NCCC(=O)N[C@@H](CCCCN)C(=O)N[C@@H](CCCCN)C(=O)N[C@@H](CC(C)C)C(=O)NCCC(=O)N[C@@H](CCCCN)C(=O)N[C@@H](CC(C)C)C(=O)NCCC(=O)N[C@@H](CCCCN)C(N)=O [Si4, 1,8-NphtG-(KLβ-AKLβ-AK)2-NH2] ({Acetyl(1,8-naphthalimido)}-KL[βAla]KL[βAla]KKL[βAla]KL[βAla]K-NH2) | good antimicrobial activity | 14.33 ± 0.36 | 881 ± 80.5 | 1.51 ± 0.148 | 1.505 ± 0.148 | 15.83 | 1330 ± 69.5 | 16 | 1220 ± 40.5 | complete hydrolytic stability | 1410 ± 26.2 | 0.940 ± 0.049 |  |  |  |  |  | 
2 | CC(C)C[C@H](NC(=O)[C@H](CCCCN)NC(=O)/C=C/c1ccc(O)c(O)c1)C(=O)N[C@@H](C)C(=O)N[C@@H](CCCCN)C(=O)N[C@@H](CC(C)C)C(=O)N[C@@H](C)C(=O)N[C@@H](CCCCN)C(=O)N[C@@H](CCCCN)C(=O)N[C@@H](CC(C)C)C(=O)N[C@@H](C)C(=O)N[C@@H](CCCCN)C(=O)N[C@@H](CC(C)C)C(=O)N[C@@H](C)C(=O)N[C@@H](CCCCN)C(N)=O [Si10, Caf-(KLAKLAK)2-NH2] | 17.66 ± 0.41 mm |  | 50.5 ± 1.66 | 1.4 ± 0.072 and 1.44 |  |  | 72.5 ± 4.69 |  | 173 ± 8.51 | complete hydrolytic stability | 177 ± 2.79 | 0.411 ± 0.023 | 1.436 ± 0.072 | 12.66 ± 0.31 | 13.33 ± 0.33 | 122 to 124 |  | 
3 | CC(C)C[C@H](NC(=O)[C@H](CCCCN)NC(=O)CN1C(=O)c2cccc3cccc(c23)C1=O)C(=O)N[C@@H](C)C(=O)N[C@@H](CCCCN)C(=O)N[C@@H](CC(C)C)C(=O)N[C@@H](C)C(=O)N[C@@H](CCCCN)C(=O)N[C@@H](CCCCN)C(=O)N[C@@H](CC(C)C)C(=O)N[C@@H](C)C(=O)N[C@@H](CCCCN)C(=O)N[C@@H](CC(C)C)C(=O)N[C@@H](C)C(=O)N[C@@H](CCCCN)C(N)=O [Si9, 1,8-NphtG-(KLAKLAK)2-NH2] | 20.66 ± 0.45 mm |  | 45 ± 4.2 | 2.19 ± 0.147 |  |  | 99.1 ± 5.59 |  | 185 ± 4.4 | complete hydrolytic stability | 179 ± 2.92 | 0.553 ± 0.037 |  | 13.50 ± 0.34 | 11.33 ± 0.26 |  | 45.2 ± 4.15 | 2.192 ± 0.147

From paper PMC8658989, “Synthesis and Biological Studies on (KLAKLAK)2-NH2 Analog Containing Unnatural Amino Acid β-Ala and Conjugates with Second Pharmacophore” (Molecules, 2021)
